Assay results as given in patent US4362743A, “Antibacterial monic acid esters” (Beecham Group Limited, priority 1980, dated 1982).
Values after ≈ are worked out from the molar mass of the structure shown. Where two headings read alike, the source gives them in different places.

Experiments:
Assay type in all cases: cell-based
M. suipneumoniae LABER = assay: Anti-mycoplasmal activity in vitro MIC; details: Mesomycoplasma hyopneumoniae, 144 h
M. dispar NCTC 10125 = assay: Anti-mycoplasmal activity in vitro MIC; details: 144 h
M. suipneumoniae Str. 11 = assay: Anti-mycoplasmal activity in vitro MIC; details: Mesomycoplasma hyopneumoniae
M. bovis NCTC 10131 = assay: microbe, parasite or virus in culture; details: NCTC10131, 144 h
[1] = test system: Pasteurella multocida 1633; assay: Human bacteria MIC
Protocol: (§1) The values were determined by serial dilutions in nutrient agar with 5% chocolated horse blood after incubations for 18 hours at 37° C.

K. aerogenes A = assay: Human bacteria MIC; details: Klebsiella aerogenes
Protocol: as §1

E. coli ESS = assay: Human bacteria MIC; details: Escherichia coli, 18 h
Protocol: as §1

[2] = test system: Corneybacterium xerosis 9755; assay: Human bacteria MIC
Protocol: as §1

Bacillus subtilis 6633 = assay: Human bacteria MIC
Protocol: as §1

Strep Group B 2788 = assay: Human bacteria MIC; details: Strep Group B 2788; nutrient agar, 5% chocolated horse blood, 18 hours 37° C.; read-out: M.I.C.
Protocol: as §1

Strep. faecalis I = assay: Human bacteria MIC; details: Enterococcus faecalis, nutrient agar, 5% chocolated horse blood, 18 hours 37° C.
Protocol: as §1

Strep. pneumoniae CN33 = assay: Human bacteria MIC; details: Streptococcus pneumoniae; Strep. pneumoniae CN33; nutrient agar, 5% chocolated horse blood, 18 hours 37° C.; read-out: M.I.C.
Protocol: as §1

Staph. aureus Oxford = assay: Human bacteria MIC; details: Staphylococcus aureus; Staph. aureus Oxford; nutrient agar, 5% chocolated horse blood, 18 hours 37° C.; read-out: M.I.C.
Protocol: as §1

E. Coli NCT 10418 = assay: Human bacteria MIC; details: Escherichia coli
Protocol: as §1

[3] = test system: Neisseria catarralis 1502; assay: Human bacteria MIC; details: Neisseria catarralis 1502; nutrient agar, 5% chocolated horse blood, 18 hours 37° C.; read-out: M.I.C.
Protocol: as §1

P. mirabilis 889 = assay: Human bacteria MIC
Protocol: as §1

Ps. aeruginosa 10662 = assay: Human bacteria MIC
Protocol: as §1

Staph. aureus Russell = assay: Human bacteria MIC; details: Staphylococcus aureus; Staph. aureus Russell; nutrient agar, 5% chocolated horse blood, 18 hours 37° C.; read-out: M.I.C.
Protocol: as §1

Strep. Group C 64/848 = assay: Human bacteria MIC; details: Strep. Group C 64/848; nutrient agar, 5% chocolated horse blood, 18 hours 37° C.; read-out: M.I.C.
Protocol: as §1

Staph. aureus W2827 = assay: Human bacteria MIC; details: Staphylococcus aureus
Protocol: as §1

Strep. pyogenes R80/421 = assay: Human bacteria MIC; details: Streptococcus pyogenes
Protocol: as §1

[4] = test system: Haemophilus influenzae Q1; assay: Human bacteria MIC
Protocol: as §1

M. hyorhinis ATCC 25021 = assay: Anti-mycoplasmal activity in vitro MIC; details: Mesomycoplasma hyorhinis, ATCC25021, 144 h
M. suipneumoniae NB12 = assay: Anti-mycoplasmal activity in vitro MIC; details: Mesomycoplasma hyopneumoniae, NB12, 144 h
[5] = test system: M. bovigenitalium ATCC 14173; assay: Anti-mycoplasmal activity in vitro MIC; details: 144 h
M. suipneumoniae HK (2) = assay: Anti-mycoplasmal activity in vitro MIC; details: Mesomycoplasma hyopneumoniae, 144 h
[6] = test system: M. suipneumoniae NCTC 10110; assay: Anti-mycoplasmal activity in vitro MIC; details: Mesomycoplasma hyopneumoniae, NCTC10110, 144 h
M. suipneumoniae TAM 6N = assay: Anti-mycoplasmal activity in vitro MIC; details: Mesomycoplasma hyopneumoniae, TAM6N, 144 h
[7] = test system: M. suipneumoniae ATCC 25095; assay: Anti-mycoplasmal activity in vitro MIC; details: Mesomycoplasma hyopneumoniae, ATCC25095, 144 h; M. suipneumoniae ATCC 25095; Friis broth, 0.9% agarose, 6 days 37° C.; read-out: M.I.C.

`CON=C(CCCOC(=O)/C=C(\C)C[C@@H]1OC[C@H](C[C@@H]2O[C@H]2[C@@H](C)[C@H](C)O)[C@@H](O)[C@H]1O)c1ccccc1` [Example 5, 4-Methoxyimino-4-phenylbutyl monate A] was tested, and the MIC (M. suipneumoniae LABER) was 0.25 mg/L (≈ 0.481 µM), the MIC (M. dispar NCTC 10125) was 0.1 mg/L (≈ 0.192 µM) and the MIC (M. suipneumoniae Str. 11; STR.11, 144 h) was 0.25 mg/L (≈ 0.481 µM). The MIC (M. bovis NCTC 10131) was 0.025 mg/L (≈ 0.0481 µM), the MIC ([1]; Pasteurella multocida, 1633, 18 h) was 50 mg/L (≈ 96.2 µM) and the MIC (K. aerogenes A; K. aerogenes A, nutrient agar, 5% chocolated horse blood, 18 hours 37° C., read-out: M.I.C.) was over 100 mg/L. For the same compound, the MIC (E. coli ESS) was 5 mg/L (≈ 9.62 µM), the MIC ([2]; Corneybacterium xerosis 9755, nutrient agar, 5% chocolated horse blood, 18 hours 37° C., read-out: M.I.C.) was over 100 mg/L and the MIC (Bacillus subtilis 6633; Bacillus subtilis 6633, nutrient agar, 5% chocolated horse blood, 18 hours 37° C., read-out: M.I.C.) was 1 mg/L (≈ 1.92 µM). The MIC (Strep Group B 2788) was 5 mg/L (≈ 9.62 µM), the MIC (Strep. faecalis I) was over 100 mg/L and the MIC (Strep. pneumoniae CN33) was 2.5 mg/L (≈ 4.81 µM). The MIC (Staph. aureus Oxford) was 1 mg/L (≈ 1.92 µM), the MIC (E. Coli NCT 10418; E. Coli NCT 10418, nutrient agar, 5% chocolated horse blood, 18 hours 37° C., read-out: M.I.C.) was over 100 mg/L and the MIC [3] was 1 mg/L (≈ 1.92 µM). The MIC (P. mirabilis 889; Proteus mirabilis, P. mirabilis 889, nutrient agar, 5% chocolated horse blood, 18 hours 37° C., read-out: M.I.C.) was over 100 mg/L, the MIC (Ps. aeruginosa 10662; Pseudomonas aeruginosa, Ps. aeruginosa 10662, nutrient agar, 5% chocolated horse blood, 18 hours 37° C., read-out: M.I.C.) was over 100 mg/L and the MIC (Staph. aureus Russell) was 2.5 mg/L (≈ 4.81 µM). The MIC (Strep. Group C 64/848) was 2.5 mg/L (≈ 4.81 µM), the MIC (Staph. aureus W2827; Staph. aureus W2827, nutrient agar, 5% chocolated horse blood, 18 hours 37° C., read-out: M.I.C.) was 2.5 mg/L (≈ 4.81 µM) and the MIC (Strep. pyogenes R80/421; Strep. pyogenes R80/421, nutrient agar, 5% chocolated horse blood, 18 hours 37° C., read-out: M.I.C.) was 2.5 mg/L (≈ 4.81 µM). For the same compound, the MIC ([4]; Haemophilus influenzae Q1, nutrient agar, 5% chocolated horse blood, 18 hours 37° C., read-out: M.I.C.) was 2.5 mg/L (≈ 4.81 µM), the MIC (M. hyorhinis ATCC 25021) was 0.25 mg/L (≈ 0.481 µM) and the MIC (M. suipneumoniae NB12) was 0.25 mg/L (≈ 0.481 µM). For the same compound, the MIC ([5]; M. bovigenitalium ATCC 14173, Friis broth, 0.9% agarose, 6 days 37° C., read-out: M.I.C.) was 0.05 mg/L (≈ 0.0962 µM), the MIC (M. suipneumoniae HK (2); M. suipneumoniae HK (2), Friis broth, 0.9% agarose, 6 days 37° C., read-out: M.I.C.) was 0.5 mg/L (≈ 0.962 µM) and the MIC [6] was 0.25 mg/L (≈ 0.481 µM). It also gave an MIC (M. suipneumoniae TAM 6N; M. suipneumoniae TAM 6N, Friis broth, 0.9% agarose, 6 days 37° C., read-out: M.I.C.) of 0.5 mg/L (≈ 0.962 µM) and an MIC [7] of 0.5 mg/L (≈ 0.962 µM).

With `C/C(=C\C(=O)OCc1ccc(C=NO)o1)C[C@@H]1OC[C@H](C[C@@H]2O[C@H]2[C@@H](C)[C@H](C)O)[C@@H](O)[C@H]1O` [Example 7, 5-Hydroxyiminomethylfurfuryl monate A] the MIC (M. suipneumoniae LABER; M. suipneumoniae LABER, Friis broth, 0.9% agarose, 6 days 37° C., read-out: M.I.C.) was 0.5 mg/L (≈ 1.07 µM), the MIC (M. dispar NCTC 10125) was 0.1 mg/L (≈ 0.214 µM) and the MIC (M. suipneumoniae Str. 11; 144 h, M. suipneumoniae Str. 11, Friis broth, 0.9% agarose, 6 days 37° C., read-out: M.I.C.) was 0.5 mg/L (≈ 1.07 µM). The MIC (M. bovis NCTC 10131) was at most 0.01 mg/L, the MIC ([1]; Pasteurella multocida 1633, nutrient agar, 5% chocolated horse blood, 18 hours 37° C., read-out: M.I.C.) was 2.5 mg/L (≈ 5.35 µM) and the MIC (K. aerogenes A; 18 h) was over 100 mg/L. For the same compound, the MIC (E. coli ESS) was 2.5 mg/L (≈ 5.35 µM), the MIC ([2]; 18 h) was over 100 mg/L and the MIC (Bacillus subtilis 6633; Bacillus subtilis, 6633, 18 h) was 1 mg/L (≈ 2.14 µM). For the same compound, the MIC (Strep Group B 2788) was 2.5 mg/L (≈ 5.35 µM), the MIC (Strep. faecalis I) was over 100 mg/L and the MIC (Strep. pneumoniae CN33) was 2.5 mg/L (≈ 5.35 µM). It also gave an MIC (Staph. aureus Oxford) of 2.5 mg/L (≈ 5.35 µM), an MIC (E. Coli NCT 10418; 18 h) of over 100 mg/L and an MIC [3] of 0.25 mg/L (≈ 0.535 µM). It also gave an MIC (P. mirabilis 889; Proteus mirabilis, 889, 18 h) of over 100 mg/L, an MIC (Ps. aeruginosa 10662; Pseudomonas aeruginosa, 10662, 18 h) of over 100 mg/L and an MIC (Staph. aureus Russell) of 2.5 mg/L (≈ 5.35 µM). It also gave an MIC (Strep. Group C 64/848) of 2.5 mg/L (≈ 5.35 µM), an MIC (Staph. aureus W2827; W2827, 18 h) of 5 mg/L (≈ 10.7 µM) and an MIC (Strep. pyogenes R80/421; R80/421, 18 h) of 1 mg/L (≈ 2.14 µM). For the same compound, the MIC ([4]; Haemophilus influenzae, Q1, 18 h) was 0.25 mg/L (≈ 0.535 µM), the MIC (M. hyorhinis ATCC 25021) was 0.5 mg/L (≈ 1.07 µM) and the MIC (M. suipneumoniae NB12) was 1 mg/L (≈ 2.14 µM). It also gave an MIC [5] of 0.025 mg/L (≈ 0.0535 µM), an MIC (M. suipneumoniae HK (2)) of 1 mg/L (≈ 2.14 µM) and an MIC [6] of 1 mg/L (≈ 2.14 µM). It also gave an MIC (M. suipneumoniae TAM 6N) of 1 mg/L (≈ 2.14 µM) and an MIC [7] of 0.5 mg/L (≈ 1.07 µM).
